Each structure is given as a SMILES string.

Test [1] deals with GDP-bound HRAS wild-type protein (Homo sapiens, UniProt P01112). The test is described as follows: Binding to HRAS by surface plasmon resonance (SPR), Single Cycle Kinetics. As to conditions: SPR, GDP-bound HRAS wild-type protein vs GDP-bound KRAS wild-type protein.
In test [2] the test system is human lung cancer strain NCI-H441.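 Further: cell proliferation inhibition after four days measured by CellTiter-Glo.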
In test [3] the target is GDP-bound KRAS wild-type protein (Homo sapiens, UniProt P01116). In words: Binding to KRAS by surface plasmon resonance (SPR), Single Cycle Kinetics. As to conditions: SPR, Single Cycle Kinetics, GDP-bound KRAS wild-type protein; read-out: KRAS KD. On the technique in general: Surface plasmon resonance follows binding to a sensor surface in real time, without labels.
The target in test [4] is GDP-bound NRAS wild-type protein (Homo sapiens, UniProt P01111). In words: Binding to NRAS by surface plasmon resonance (SPR), Single Cycle Kinetics. The note with it: SPR, GDP-bound NRAS wild-type protein vs GDP-bound KRAS wild-type protein.
Sequence of GDP-bound NRAS wild-type protein (P01111 whole entry): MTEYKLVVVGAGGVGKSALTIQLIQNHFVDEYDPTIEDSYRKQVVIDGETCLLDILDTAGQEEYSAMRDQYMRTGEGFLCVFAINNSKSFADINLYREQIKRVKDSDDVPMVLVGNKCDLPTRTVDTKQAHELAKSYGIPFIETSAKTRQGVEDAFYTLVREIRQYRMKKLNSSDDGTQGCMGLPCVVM

Sequence of GDP-bound KRAS wild-type protein (P01116 whole entry): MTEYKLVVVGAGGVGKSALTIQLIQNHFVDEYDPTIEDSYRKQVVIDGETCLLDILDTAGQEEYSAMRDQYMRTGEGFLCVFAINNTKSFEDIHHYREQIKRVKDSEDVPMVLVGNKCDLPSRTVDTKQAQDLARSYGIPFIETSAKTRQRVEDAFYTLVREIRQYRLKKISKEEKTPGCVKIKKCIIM
Sequence of GDP-bound HRAS wild-type protein (P01112 whole entry): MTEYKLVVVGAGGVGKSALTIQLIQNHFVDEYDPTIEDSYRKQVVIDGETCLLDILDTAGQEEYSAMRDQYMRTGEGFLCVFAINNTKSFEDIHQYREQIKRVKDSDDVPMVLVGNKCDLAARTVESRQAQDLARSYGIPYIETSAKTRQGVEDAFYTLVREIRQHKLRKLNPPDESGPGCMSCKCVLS

For orientation: IC50 means the concentration that gives 50% inhibition. A high value points to a need for much substance. In general, Kd refers to a measure of binding affinity in units of concentration. On to `CCO[C@@H]1C[C@H]2C(=O)NC3(CCC3)C(=O)N(C)[C@@H](C3CCCC3)C(=O)N(C)[C@H](C(=O)N(C)C)CC(=O)N(C)[C@@H](CC3CCC3)C(=O)N[C@@H]([C@@H](C)CC)C(=O)N(C)CC(=O)N(C)[C@H]3C/C=C\CCN(C3=O)[C@@H](Cc3ccc(C(F)(F)F)cc3)C(=O)N(C)CC(=O)N[C@@H](CCc3cc(F)c(C(F)(F)F)c(F)c3)C(=O)N2C1` [PP1118, (2S,8S,12R,14S,20S,23S,27S,30S,36S,38Z)-27-(cyclobutylmethyl)-20-cyclopentyl-8-[2-[3,5-difluoro-4-(trifluoromethyl)phenyl]ethyl]-12-ethoxy-N,N,4,19,22,26,32,35-octamethyl-30-[(1S)-1-methylpropyl]-3,6,9,15,18,21,25,28,31,34,42-undecaoxo-2-[[4-(trifluoromethyl)phenyl]methyl]spiro[1,4,7,10,16,19,22,26,29,32,35-undecazatricyclo[34.5.1.0^10,14]dotetracont-38-ene-17,1′-cyclobutane]-23-carboxamide], for which, in test [1], the “HRAS/KRAS (ratio of KD value for HRAS to KD value for KRAS)” value is “B (a compound having 3 or more and less than 10 is denoted as B)”. The IC50 in test [2] was 6.5 nM. Moreover, the dissociation constant Kd in test [3] was determined as 0.056 nM. Moreover, the “NRAS/KRAS (ratio of KD value for NRAS to KD value for KRAS)” value in test [4] was “A (a compound having 10 or more and less than 20 is denoted as A)”.
Take `CC[C@H](C)[C@@H]1NC(=O)[C@H](CC)N(C)C(=O)C[C@@H](C(=O)N(C)C)N(C)C(=O)[C@H](C2CCCC2)N(C)C(=O)C2(CCC2)NC(=O)[C@@H]2CC(F)(F)CN2C(=O)[C@H](CCc2cc(F)c(C(F)(F)F)c(F)c2)NC(=O)CN(C)C(=O)[C@H](Cc2ccc(C(F)(F)F)cc2)N2CC/C=C\C[C@@H](C2=O)N(C)C(=O)CN(C)C1=O` [PP1129, (2S,8S,14S,20S,23S,27S,30S,36S,38Z)-20-cyclopentyl-8-[2-[3,5-difluoro-4-(trifluoromethyl)phenyl]ethyl]-27-ethyl-12,12-difluoro-N,N,4,19,22,26,32,35-octamethyl-30-[(1S)-1-methylpropyl]-3,6,9,15,18,21,25,28,31,34,42-undecaoxo-2-[[4-(trifluoromethyl)phenyl]methyl]spiro[1,4,7,10,16,19,22,26,29,32,35-undecazatricyclo[34.5.1.0^10,14]dotetracont-38-ene-17,1′-cyclobutane]-23-carboxamide]: the “HRAS/KRAS (ratio of KD value for HRAS to KD value for KRAS)” value in test [1] was “B (a compound having 3 or more and less than 10 is denoted as B)”. In test [2], this compound had an IC50 of 10.2 nM. For the same compound, in test [3], the Kd was 0.056 nM. The “NRAS/KRAS (ratio of KD value for NRAS to KD value for KRAS)” value in test [4] was “A (a compound having 10 or more and less than 20 is denoted as A)”.
As for `CC[C@H](C)[C@@H]1NC(=O)[C@H](CC)N(C)C(=O)C[C@@H](C(=O)N(C)C)N(C)C(=O)[C@H](C2CCCC2)N(C)C(=O)C2(CCC2)NC(=O)[C@@H]2C[C@@H](OC)CN2C(=O)[C@H](CCc2cc(F)c(C(F)(F)F)c(F)c2)NC(=O)CN(C)C(=O)[C@H](Cc2ccc(C(F)(F)F)cc2)N2CC/C=C\C[C@@H](C2=O)N(C)C(=O)CN(C)C1=O` [PP1130, (2S,8S,12R,14S,20S,23S,27S,30S,36S,38Z)-20-cyclopentyl-8-[2-[3,5-difluoro-4-(trifluoromethyl)phenyl]ethyl]-27-ethyl-12-methoxy-N,N,4,19,22,26,32,35-octamethyl-30-[(1S)-1-methylpropyl]-3,6,9,15,18,21,25,28,31,34,42-undecaoxo-2-[[4-(trifluoromethyl)phenyl]methyl]spiro[1,4,7,10,16,19,22,26,29,32,35-undecazatricyclo[34.5.1.0^10,14]dotetracont-38-ene-17,1′-cyclobutane]-23-carboxamide], in test [1], the “HRAS/KRAS (ratio of KD value for HRAS to KD value for KRAS)” value is “B (a compound having 3 or more and less than 10 is denoted as B)”. This compound showed an IC50 in test [2] of 19.6 nM. Besides, the Kd in test [3] came out at 0.035 nM. Moreover, the “NRAS/KRAS (ratio of KD value for NRAS to KD value for KRAS)” value in test [4] was “A (a compound having 10 or more and less than 20 is denoted as A)”.
For `CC[C@H](C)[C@@H]1NC(=O)[C@H](CC)N(C)C(=O)C[C@@H](C(=O)N(C)C)N(C)C(=O)[C@H](C2CCCC2)N(C)C(=O)C2(CCC2)NC(=O)[C@@H]2C[C@@H](F)CN2C(=O)[C@H](CCc2cc(F)c(C(F)(F)F)c(F)c2)NC(=O)CN(C)C(=O)[C@H](Cc2ccc(C(F)(F)F)cc2)N2CC/C=C\C[C@@H](C2=O)N(C)C(=O)CN(C)C1=O` [PP1131, (2S,8S,12R,14S,20S,23S,27S,30S,36S,38Z)-20-cyclopentyl-8-[2-[3,5-difluoro-4-(trifluoromethyl)phenyl]ethyl]-27-ethyl-12-fluoro-N,N,4,19,22,26,32,35-octamethyl-30-[(1S)-1-methylpropyl]-3,6,9,15,18,21,25,28,31,34,42-undecaoxo-2-[[4-(trifluoromethyl)phenyl]methyl]spiro[1,4,7,10,16,19,22,26,29,32,35-undecazatricyclo[34.5.1.0^10,14]dotetracont-38-ene-17,1′-cyclobutane]-23-carboxamide], the “HRAS/KRAS (ratio of KD value for HRAS to KD value for KRAS)” value in test [1] was “B (a compound having 3 or more and less than 10 is denoted as B)”. The compound further registered an IC50 in test [2] of 32 nM. Further, the Kd in test [3] was 0.025 nM. Further, in test [4], the “NRAS/KRAS (ratio of KD value for NRAS to KD value for KRAS)” value is “A (a compound having 10 or more and less than 20 is denoted as A)”.
On to `CC[C@H](C)[C@@H]1NC(=O)[C@H](CC)N(C)C(=O)C[C@@H](C(=O)N(C)C)N(C)C(=O)[C@H](C2CCCC2)N(C)C(=O)C2(CCC2)NC(=O)[C@@H]2C[C@H](F)CN2C(=O)[C@H](CCc2cc(F)c(C(F)(F)F)c(F)c2)NC(=O)CN(C)C(=O)[C@H](Cc2ccc(C(F)(F)F)cc2)N2CC/C=C\C[C@@H](C2=O)N(C)C(=O)CN(C)C1=O` [PP1132, (2S,8S,12S,14S,20S,23S,27S,30S,36S,38Z)-20-cyclopentyl-8-[2-[3,5-difluoro-4-(trifluoromethyl)phenyl]ethyl]-27-ethyl-12-fluoro-N,N,4,19,22,26,32,35-octamethyl-30-[(1S)-1-methylpropyl]-3,6,9,15,18,21,25,28,31,34,42-undecaoxo-2-[[4-(trifluoromethyl)phenyl]methyl]spiro[1,4,7,10,16,19,22,26,29,32,35-undecazatricyclo[34.5.1.0^10,14]dotetracont-38-ene-17,1′-cyclobutane]-23-carboxamide], for which, in test [1], the “HRAS/KRAS (ratio of KD value for HRAS to KD value for KRAS)” value is “B (a compound having 3 or more and less than 10 is denoted as B)”. Half-maximal inhibition in test [2] (IC50) was put at 86.8 nM. The dissociation constant (Kd) in test [3] was found to be 0.066 nM. In test [4], the “NRAS/KRAS (ratio of KD value for NRAS to KD value for KRAS)” value is “A (a compound having 10 or more and less than 20 is denoted as A)”.
Turning to `CC[C@H](C)[C@@H]1NC(=O)[C@H](CC)N(C)C(=O)C[C@@H](C(=O)N(C)C)N(C)C(=O)[C@H](C2CCCC2)N(C)C(=O)C2(CCC2)NC(=O)[C@@H]2C[C@@H](C(F)(F)F)CN2C(=O)[C@H](CCc2cc(F)c(C(F)(F)F)c(F)c2)NC(=O)CN(C)C(=O)[C@H](Cc2ccc(C(F)(F)F)cc2)N2CC/C=C\C[C@@H](C2=O)N(C)C(=O)CN(C)C1=O` [PP1133, (2S,8S,12R,14S,20S,23S,27S,30S,36S,38Z)-20-cyclopentyl-8-[2-[3,5-difluoro-4-(trifluoromethyl)phenyl]ethyl]-27-ethyl-N,N,4,19,22,26,32,35-octamethyl-30-[(1S)-1-methylpropyl]-3,6,9,15,18,21,25,28,31,34,42-undecaoxo-12-(trifluoromethyl)-2-[[4-(trifluoromethyl)phenyl]methyl]spiro[1,4,7,10,16,19,22,26,29,32,35-undecazatricyclo[34.5.1.0^10,14]dotetracont-38-ene-17,1′-cyclobutane]-23-carboxamide], in test [1], the “HRAS/KRAS (ratio of KD value for HRAS to KD value for KRAS)” value was “A (a compound having 10 or more and less than 20 is denoted as A)”. In test [2], this compound returned an IC50 of 16.5 nM. In addition, the dissociation constant Kd in test [3] came out at 0.05 nM. Also, the “NRAS/KRAS (ratio of KD value for NRAS to KD value for KRAS)” value in test [4] is “A (a compound having 10 or more and less than 20 is denoted as A)”.
With `CC[C@H](C)[C@@H]1NC(=O)[C@H](CC)N(C)C(=O)C[C@@H](C(=O)N(C)C)N(C)C(=O)[C@H](C2CCCC2)N(C)C(=O)C2(CCC2)NC(=O)[C@@H]2C[C@H](C)CN2C(=O)[C@H](CCc2cc(F)c(C(F)(F)F)c(F)c2)NC(=O)CN(C)C(=O)[C@H](Cc2ccc(C(F)(F)F)cc2)N2CC/C=C\C[C@@H](C2=O)N(C)C(=O)CN(C)C1=O` [PP1134, (2S,8S,12S,14S,20S,23S,27S,30S,36S,38Z)-20-cyclopentyl-8-[2-[3,5-difluoro-4-(trifluoromethyl)phenyl]ethyl]-27-ethyl-N,N,4,12,19,22,26,32,35-nonamethyl-30-[(1S)-1-methylpropyl]-3,6,9,15,18,21,25,28,31,34,42-undecaoxo-2-[[4-(trifluoromethyl)phenyl]methyl]spiro[1,4,7,10,16,19,22,26,29,32,35-undecazatricyclo[34.5.1.0^10,14]dotetracont-38-ene-17,1′-cyclobutane]-23-carboxamide], the “HRAS/KRAS (ratio of KD value for HRAS to KD value for KRAS)” value in test [1] was “B (a compound having 3 or more and less than 10 is denoted as B)”. Besides, the IC50 in test [2] is 20 nM. Besides, in test [3], the Kd amounted to 0.06 nM. The “NRAS/KRAS (ratio of KD value for NRAS to KD value for KRAS)” value in test [4] is “A (a compound having 10 or more and less than 20 is denoted as A)”.
